We go through six compounds from paper PMC10537604, “Development and Assessment of 1,5–Diarylpyrazole/Oxime Hybrids Targeting EGFR and JNK–2 as Antiproliferative Agents: A Comprehensive Study through Synthesis, Molecular Docking, and Evaluation” (Molecules, 2023).

For series [1], the system named is human colorectal adenocarcinoma cell line DLD-1. Put plainly: WST-8 antiproliferative assay, DLD-1. It counts as cell-based. The protocol: (§1) Compounds 7a–j, 8a–j, 9a–c, and 10a–c were evaluated for in vitro anticancer activities against five different cancer cell lines, namely, human colorectal adenocarcinoma cell lines DLD-1, human cervical cancer cell line Hela, human pancreatic cancer cell line SUIT-2, human myelogenous leukemia cell line K562, and human hepatocellular carcinoma cell line HepG2 using WST-8 assay at concentrations of 100 µM to investigate the growth inhibition percent (GI%) of each compound using daunorubicin as a reference drug. […]. […] So, as a conclusion on the SAR study of those compounds as antiproliferative agents, the oxime moiety potentiated the anticancer activity and electron donating groups on R1 and R2 played an important role on this activity. Moreover, the sulfamoyl moiety on R3 seems to play a potential role in the activity of the prepared compounds (Table 1).
(§2) All selected compounds and daunorubicin were recorded as the minimum concentration required to inhibit half cell growth (IC50) and the results are listed in Table 2.
(§3) Evaluation of anticancer activity was performed according to the standard water-soluble tetrazolium-8 (WST-8) assay at the Faculty of Engineering, Yamagata University, Yonezawa, Japan, using an MTP-310 absorbance microplate reader. The EGFR inhibitory assay was carried out at the Faculty of Engineering, Yamagata University, Yonezawa, Japan, according to the protocol enzyme linked immunosorbent assay (ELISA) kits (Douset sandwich ELISA test, recombinant mouse EGFR). The JNK-2 inhibitory assay was performed at the Faculty of Engineering, Yamagata University, Yonezawa, Japan, according to the protocol of enzyme-linked immunosorbent assay (ELISA), the assay was carried out using the JNK-2 kit (Simple Step ELISA, pT183/Y185, Abcam Company, Cambridge, CB2 0AX, UK). Apoptosis and cell cycle analysis was performed at Faculty of medicine, Yamagata University, Yamagata, Japan, using BD FACS melody. Molecular docking was performed at the Nano Medical Engineering Laboratory, RIKEN Cluster for Pioneering Researchers, RIEKN, Japan, using ICM-Pro 3.8 software (MolSoft L.L.C., San Diego, CA, USA).
(§4) According to the standard water-soluble tetrazolium-8 (WST-8) assay, the current synthesized compounds have been tested for their anticancer activities against different five cancer cell lines; DLD-1, Hela, K562, SUIT-2, and HepG2 and daunorubicin was used as reference drug by the WST-8 assay. The five cells were maintained in a suspension culture, (Dulbecco’s modified eagle medium (DMEM) for SUIT-2, Hela, and HepG2 or PRIM for K562 and DLD), supplemented with 5% FBS (Fetal Bovine Serum) containing 1% of a penicillin-streptomycin (1:1) mixture. A 100 μL aliquot of cells (10,000 cells/mL) was added to a 96 well plate and incubated for 24 h at 37 °C in a humidified incubator containing 5% CO2 in the air. After 24 h, a 10 μL aliquot of test compound (concentrations varying in the range of 10–150 µM) was added to each of the 96 wells and incubated for 24 h. Then A 10 μL WST-8 solution (mixture of WST-8 and 1-methoxy PMS) was added to each well and the incubation continued for 3 h. The visible absorbance at 450 nm and 630 nm as the reference wavelength of each well was quantified using an MTP-310 absorbance microplate reader. Daunorubicin was used as a positive control. The results of cytotoxicity were recorded as growth inhibition percentages and as IC50 values.

Series [2] concerns human cervical cancer cell line Hela. The series is described as follows: WST-8 antiproliferative assay, Hela. It counts as cell-based. Conditions: for inhibition at 100 µM: read-out: Growth Inhibition (GI%) Hela; for IC50: read-out: IC50 Hela. On the procedure: as §1, §2, §3
as §4, with “After 24 h, a 10 μL aliquot of test compound (concentrations varying in the range of 10–150 µM) was added to each of the 96 wells and incubated for 24 h.” left out

For series [3], the system named is human myelogenous leukemia cell line K562. Put plainly: WST-8 antiproliferative assay, K562. It is filed as cell-based. The protocol: as §1, §2, §3
as §4, with “After 24 h, a 10 μL aliquot of test compound (concentrations varying in the range of 10–150 µM) was added to each of the 96 wells and incubated for 24 h.” left out

The subject of series [4] is human pancreatic cancer cell line SUIT-2. Put plainly: WST-8 antiproliferative assay, SUIT-2. It counts as cell-based. On the procedure: as §1, §2, §3, §4
Series [5] deals with human hepatocellular carcinoma cell line HepG2. Put plainly: WST-8 antiproliferative assay, HepG2. It counts as cell-based. On the procedure:
as §1, §2, §3, §4

The test system of series [6] is human colorectal adenocarcinoma cell line DLD-1. Put plainly: WST-8 antiproliferative assay, DLD-1. It is filed as cell-based. Conditions: WST-8 assay, six concentrations 1-100 µM.
Series [7] has as its system human pancreatic cancer cell line SUIT-2. Put plainly: WST-8 antiproliferative assay, SUIT-2. It counts as cell-based. Conditions: WST-8 assay, six concentrations 1-100 µM.
In series [8] the test system is human hepatocellular carcinoma cell line HepG2. The series is described as follows: WST-8 antiproliferative assay, HepG2. It counts as cell-based. Conditions: WST-8 assay, six concentrations 1-100 µM.
A further series addresses EGFR tyrosine kinase. Set-up: method as in doi:10.21608/jabps.2021.77469.1129, PMID 24731281. To be noted: literature values ref [4],[29]; read-out: EGFR tyrosine kinase inhibitory activity IC50; cited from earlier work.
Series [9] concerns PC12 (rat adrenal-derived pheochromocytoma cells). The series is described as follows: WST-8 cytotoxicity towards normal cell line PC12. Conditions: Rattus norvegicus, PC-12, read-out: percentage growth inhibition PC12. It is filed as cell-based. The protocol: The evaluation of normal cell viability is fundamental in analyzing the efficacy of target compounds and is often used in conjunction with cytotoxicity tests to help understand how target compound toxicity affects normal cell health. […] A 100 μL aliquot of cells (10,000 cells/mL) was added to a 96 well plate and incubated for 24 h at 37 °C in a humidified incubator containing 5% CO2 in the air. […] Then, a 10 μL WST-8 solution (mixture of WST-8 and 1-methoxy PMS) was added to each well and the incubation continued for 3 h. The visible absorbance at 450 nm and 630 nm as the reference wavelength of each well was quantified using an MTP-310 absorbance microplate reader. Daunorubicin was used as a positive control. The results of cytotoxicity were recorded as growth inhibition percentages and as IC50 values.

[10] abbreviates: DLD-1, 100 µM, WST-8 assay, read-out: Growth Inhibition (GI%) DLD-1.
Setting [11] is: WST-8 assay, six concentrations 1-100 µM.
The mark [12] stands for this setting: Homo sapiens, K562, 100 µM, WST-8 assay, read-out: Growth Inhibition (GI%) K562.
The mark [13] stands for this setting: SUIT-2, 100 µM, WST-8 assay, read-out: Growth Inhibition (GI%) SUIT-2.
[14] abbreviates: HepG2, 100 µM, WST-8 assay, read-out: Growth Inhibition (GI%) HepG2.

Molecules are shown by their SMILES. Like-named read-outs stand apart in the source and are kept apart here.

As for `COc1cc(C(C)=O)ccc1OC(=O)c1cc(-c2ccc(C)cc2)n(-c2ccccc2)n1` [Compound 7b, 4–Acetyl–2–methoxyphenyl–1–phenyl 5–p–tolyl–1H–pyrazole–3–carboxylate], the melting point was 110 to 112 °C. Besides, the inhibition at 100 µM in series [1] (setting [10]) is 81%. Besides, in series [2] (100 µM, WST-8 assay), the inhibition at 100 µM worked out at 83%. Further, in series [2] (setting [11]), the IC50 came to 55 µM. The inhibition at 100 µM in series [3] (setting [12]) was 70%. In series [4] (setting [13]), the inhibition at 100 µM is 103%. Also, the inhibition at 100 µM in series [5] (setting [14]) was determined as 85%. For the same compound, the IC50 in series [6] amounted to 13 µM. The IC50 in series [7] came out at 45 µM. The compound also displayed an IC50 in series [8] of 45 µM.

In turn, `COc1cc(C(C)=O)ccc1OC(=O)c1cc(-c2ccc(Cl)cc2)n(-c2ccccc2)n1` [Compound 7d, 4–Acetyl–2–methoxyphenyl–5–(4–chlorophenyl) 1–phenyl–1H–pyrazole–3–carboxylate] registered a melting point of 85 to 87 °C. In addition, the inhibition at 100 µM in series [1] (setting [10]) is 72%. Moreover, the inhibition at 100 µM in series [2] (100 µM, WST-8 assay) was found to be 104%. For the same compound, the IC50 in series [2] (setting [11]) amounted to 15 µM. The inhibition at 100 µM in series [3] (setting [12]) turned out to be 50%. Besides, the inhibition at 100 µM in [4] (setting [13]) amounted to 104%. Besides, the inhibition at 100 µM in series [5] (setting [14]) was determined as 31%. Further, the IC50 in [6] came out at 81 µM. Also, the IC50 in series [7] is 43 µM.

As for `COc1cc(C(C)=O)ccc1OC(=O)c1cc(-c2ccc(C)cc2)n(-c2ccc(S(N)(=O)=O)cc2)n1` [Compound 7g, 4–Acetyl–2–methoxyphenyl–1–(4–sulfamoylphenyl) 5–p–tolyl–1H–pyrazole–3–carboxylate], the melting point is 83 to 85 °C. The inhibition at 100 µM in series [1] (setting [10]) was determined as 96.7%. Moreover, the inhibition at 100 µM in [2] (100 µM, WST-8 assay) was 30%. Moreover, the inhibition at 100 µM in [3] (setting [12]) is 77%. In addition, the inhibition at 100 µM in [4] (setting [13]) is 92%. The inhibition at 100 µM in [5] (setting [14]) came to 66%. The same compound came in with an IC50 in [6] of 13 µM. The IC50 in series [7] stood at 31 µM.

For the compound `COc1ccc(-c2cc(-c3ccc(C)c(C)c3)nn2C(N)=S)cc1` [Compound I], the IC50 on EGFR tyrosine kinase was 0.07 µM.

For the compound `COc1cccc2c1C(=O)c1c(O)c3c(c(O)c1C2=O)C[C@@](O)(C(C)=O)C[C@@H]3O[C@H]1C[C@H](N)[C@H](O)[C@H](C)O1` [Daunorubicin, daunorubicin, reference compound], the inhibition at 100 µM was 82.5% in series [1] (DLD-1, read-out: Growth Inhibition (GI%) DLD-1); 100% in [2]; 100% in [3] (Homo sapiens, K562, read-out: Growth Inhibition (GI%) K562); 92% in series [4] (SUIT-2, read-out: Growth Inhibition (GI%) SUIT-2); 100% in series [5] (HepG2, read-out: Growth Inhibition (GI%) HepG2); 113% in [9]. Further, the IC50 came to 30 µM in series [1] (DLD-1, read-out: IC50 DLD-1); 0.097 µM in series [2]; 13 µM in series [3] (Homo sapiens, K562, read-out: IC50 K562, WST-8 assay, six concentrations 1-100 µM); 13.3 µM in series [3] (read-out: IC50 K562, WST-8 assay, six concentrations 1-100 µM); 9 µM in [4] (SUIT-2, read-out: IC50 SUIT-2); 22 µM in series [5] (HepG2, read-out: IC50 HepG2). Besides, the inhibition at 1 µM in series [9] stood at 81%. In addition, the inhibition at 50 µM in series [9] amounted to 107%.

Turning to `Cc1ccc(-c2cc(-c3ccc4ccccc4c3)n(C3=NC(=O)CS3)n2)cc1C` [II], the IC50 on EGFR tyrosine kinase is 0.06 µM.
